Results published in ChEMBL document CHEMBL3600353, “In Vitro Activity of Epigallocatechin Gallate and Quercetin Alone and in Combination versus Clinical Isolates of Methicillin-Resistant Staphylococcus aureus” (2015).
The source made the active and inactive calls. The calls are words filed in the database; no cut-off is given here.

How the values were obtained:
Staphylococcus aureus [1] = test: Antibacterial activity against methicillin-resistant Staphylococcus aureus isolate 2 after 24 hrs by checkerboard assay; assay type: functional; conditions: isolate 2, 24 h
Staphylococcus aureus [2] = test: Antibacterial activity against methicillin-resistant Staphylococcus aureus NCTC 12493 after 24 hrs by checkerboard assay; assay type: functional; conditions: NCTC 12493, 24 h
Staphylococcus aureus [3] = test: Antibacterial activity against methicillin-resistant Staphylococcus aureus isolate 9 after 24 hrs by checkerboard assay; assay type: functional; conditions: isolate 9, 24 h
Staphylococcus aureus [4] = test: Antibacterial activity against methicillin-resistant Staphylococcus aureus isolate 5 by disk diffusion assay; assay type: functional
Staphylococcus aureus [5] = test: Antibacterial activity against methicillin-resistant Staphylococcus aureus isolate 3 after 24 hrs by checkerboard assay; assay type: functional; conditions: isolate 3, 24 h
Staphylococcus aureus [6] = test: Antibacterial activity against methicillin-resistant Staphylococcus aureus isolate 2 by disk diffusion assay; assay type: functional
Staphylococcus aureus [7] = test: Antibacterial activity against methicillin-resistant Staphylococcus aureus isolate 8 after 24 hrs by checkerboard assay; assay type: functional; conditions: isolate 8, 24 h
Staphylococcus aureus [8] = test: Antibacterial activity against methicillin-resistant Staphylococcus aureus isolate 6 after 24 hrs by checkerboard assay; assay type: functional; conditions: isolate 6, 24 h
Staphylococcus aureus [9] = test: Antibacterial activity against methicillin-resistant Staphylococcus aureus isolate 9 by disk diffusion assay; assay type: functional
Staphylococcus aureus [10] = test: Antibacterial activity against vancomycin-intermediate resistant Staphylococcus aureus Mu50 after 24 hrs by checkerboard assay; assay type: functional; conditions: Mu50, 24 h
Staphylococcus aureus [11] = test: Antibacterial activity against methicillin-resistant Staphylococcus aureus isolate 7 by disk diffusion assay; assay type: functional
Staphylococcus aureus [12] = test: Antibacterial activity against vancomycin-intermediate resistant Staphylococcus aureus Mu50 at 1.69 mM after 4 hrs by time kill assay; assay type: functional, organism-based
Staphylococcus aureus [13] = test: Antibacterial activity against methicillin-resistant Staphylococcus aureus isolate 1 by disk diffusion assay; assay type: functional
Staphylococcus aureus [14] = test: Antibacterial activity against methicillin-sensitive Staphylococcus aureus ATCC 25923 at 1.69 mM after 4 hrs by time kill assay; assay type: functional, organism-based
Staphylococcus aureus [15] = test: Antibacterial activity against methicillin-resistant Staphylococcus aureus isolate 8 by disk diffusion assay; assay type: functional
Staphylococcus aureus [16] = test: Antibacterial activity against methicillin-resistant Staphylococcus aureus isolate 4 by disk diffusion assay; assay type: functional
Staphylococcus aureus [17] = test: Antibacterial activity against methicillin-resistant Staphylococcus aureus isolate 7 after 24 hrs by checkerboard assay; assay type: functional; conditions: isolate 7, 24 h
Staphylococcus aureus [18] = test: Antibacterial activity against methicillin-resistant Staphylococcus aureus isolate 3 by disk diffusion assay; assay type: functional
Staphylococcus aureus [19] = test: Antibacterial activity against methicillin-resistant Staphylococcus aureus NCTC 12493 at 1.69 mM after 5 hrs by time kill assay; assay type: functional, organism-based
Staphylococcus aureus [20] = test: Antibacterial activity against methicillin-sensitive Staphylococcus aureus ATCC 25923 at 1.69 mM after 5 hrs by time kill assay; assay type: functional, organism-based
Staphylococcus aureus [21] = test: Antibacterial activity against Staphylococcus aureus ATCC 25923 after 24 hrs by checkerboard assay; assay type: functional; conditions: ATCC 25923, 24 h
Staphylococcus aureus [22] = test: Antibacterial activity against methicillin-resistant Staphylococcus aureus isolate 6 by disk diffusion assay; assay type: functional
Staphylococcus aureus [23] = test: Antibacterial activity against methicillin-resistant Staphylococcus aureus NCTC 12493 assessed as log reduction of bacterial growth after 9 hrs; assay type: functional
Staphylococcus aureus [24] = test: Antibacterial activity against methicillin-resistant Staphylococcus aureus isolate 1 after 24 hrs by checkerboard assay; assay type: functional; conditions: isolate 1, 24 h
Staphylococcus aureus [25] = test: Antibacterial activity against methicillin-resistant Staphylococcus aureus NCTC 12493 at 1.69 mM after 4 hrs by time kill assay; assay type: functional, organism-based
Staphylococcus aureus [26] = test: Antibacterial activity against methicillin-resistant Staphylococcus aureus isolate 5 after 24 hrs by checkerboard assay; assay type: functional; conditions: isolate 5, 24 h
Staphylococcus aureus [27] = test: Antibacterial activity against methicillin-resistant Staphylococcus aureus isolate 4 after 24 hrs by checkerboard assay; assay type: functional; conditions: isolate 4, 24 h

## O=c1c(O)c(-c2ccc(O)c(O)c2)oc2cc(O)cc(O)c12 [QUERCETIN]
Staphylococcus aureus [1]
  MIC: 1690 µM
Staphylococcus aureus [2]
  MIC: 850 µM
Staphylococcus aureus [3]
  MIC: 1690 µM
Staphylococcus aureus [4]
  inhibition zone (IZ): inactive
Staphylococcus aureus [5]
  MIC: 1690 µM
Staphylococcus aureus [6]
  inhibition zone (IZ): inactive
Staphylococcus aureus [7]
  MIC: 1690 µM
Staphylococcus aureus [8]
  MIC: 1690 µM
Staphylococcus aureus [9]
  inhibition zone (IZ): inactive
Staphylococcus aureus [10]
  MIC: 1690 µM
Staphylococcus aureus [11]
  inhibition zone (IZ): inactive
Staphylococcus aureus [12]
  Activity: inactive
Staphylococcus aureus [13]
  inhibition zone (IZ): 8 mm
Staphylococcus aureus [14]
  Activity: Active
Staphylococcus aureus [15]
  inhibition zone (IZ): inactive
Staphylococcus aureus [16]
  inhibition zone (IZ): inactive
Staphylococcus aureus [17]
  MIC: 1690 µM
Staphylococcus aureus [18]
  inhibition zone (IZ): inactive
Staphylococcus aureus [19]
  Activity: inactive
Staphylococcus aureus [20]
  Activity: inactive
Staphylococcus aureus [21]
  MIC: 1690 µM
Staphylococcus aureus [22]
  inhibition zone (IZ): inactive
Staphylococcus aureus [23]
  FC: 1
Staphylococcus aureus [24]
  MIC: 1690 µM
Staphylococcus aureus [25]
  Activity: Active
Staphylococcus aureus [26]
  MIC: 1690 µM
Staphylococcus aureus [27]
  MIC: 1690 µM
